Data on 1 compound can be found in patent US10358683B2, “Compositions and methods for determining whether a subject would benefit from co-receptor inhibitor therapy” (priority 2007, dated 2019).

Read-outs that look alike come from different tables or passages of the source.

The test system of experiment [1] is dual-tropic HIV-1 variants. To be noted: for suppression of CXCR4-tropic virus: patients, 10 days of therapy. As for the experimental part: First, samples from 26 subjects administered AMD3100 for 10 days were obtained prior to therapy and on day 11 following the 10 days of therapy. Co-receptor tropism of the viral populations from both sets of samples were then determined according to Example 1. […] 37(2):1253-62.

In experiment [2] the test system is primarily CXCR4-tropic viruses. Description: Entry of pseudotyped viruses into U87 cells in presence of co-receptor inhibitors (FIG. 5). Type of experiment: cell-based, HIV-1. As for the experimental part:
(§1) Susceptibility assays for HIV-1 entry inhibitors were performed using packaging host cells consisting of the human embryonic kidney cell line 293 (Cell Culture Facility, UC San Francisco, SF, Calif.) and target host cells consisting of a human osteosarcoma (HOS) cell line expressing CD4 (HT4) plus CCR5, and CXCR4, or astrocytoma (U-87) cell lines expressing either CD4 and CCR5 or CD4 and CXCR4.
(§2) Drug susceptibility testing was performed using pHIVenv and pHIVluc or pHIVlucΔU3. Pseudotyped HIV particles containing envelope proteins encoded by the subject derived segment were produced by transfecting a packaging host cell (HEK 293) with resistance test vector DNA. […] After infection (˜72 h) the target cells are lysed and luciferase activity is measured. […] The amount of luciferase activity detected in the infected cells is used as a direct measure of “infectivity” (FIGS. 1 and 2). […]
(§3) Drug susceptibility is assessed by comparing the infectivity in the absence of drug to infectivity in the presence of drug. […]
(§4) First, 35 gp160 envelope genes derived from different patient samples that were originally identified as dual-tropic were cloned into an expression vector as described in Example 1. Tropism of pseudotyped virus was determined by measuring luciferase activity (relative light units, RLU) following infection of U87/CD4+CCR5+ or U87/CD4+CXCR4+ cells as described above. […]

Experiment [3] deals with Dual_X-tropic viruses. The note with it: fully replication competent Dual_X-tropic viruses, PBMCs. Here is the method:
(§5) First, 35 gp160 envelope genes derived from different patient samples that were originally identified as dual-tropic were cloned into an expression vector as described in Example 1. Tropism of pseudotyped virus was determined by measuring luciferase activity (relative light units, RLU) following infection of U87/CD4+CCR5+ or U87/CD4+CXCR4+ cells as described above. Inhibition of infection by small molecule CCR5-(Merck) and CXCR4-(AMD3100; AnorMED) inhibitors was examined on U87/CD4+CCR5+CXCR4+ cells, U87/CD4+CXCR4+ cells, and U87/CD4+CCR5+ cells. A subset of the envelope genes were also inserted into an NL4-3 infectious clone and evaluated for their ability to infect PBMCs in the presence of the CCR5- or CXCR4-inhibitors.

Experiment [4] deals with dual-tropic viruses. Description: Infection of PBMCs by fully replication competent viruses (FIG. 7, summary). Type of experiment: cell-based, HIV-1. As for the experimental part:
as §5

Experiment [5] has as its system Clone 31 (X4 >> R5_3). Type of experiment: cell-based, HIV-1. The note with it: PBMCs; Clone 31 envelope in NL4-3 infectious clone, tropism subtype X4 >> R5. As for the experimental part: as §5
Experiment [6] deals with Clone 34 (X4 >> R5_1). Type of experiment: cell-based, HIV-1. To be noted: PBMCs; Clone 34 envelope in NL4-3 infectious clone, tropism subtype X4 >> R5. Here is the method: as §5
Experiment [7] has as its system Clone 25 (R5~X4_2). Type of experiment: cell-based, HIV-1. The note with it: PBMCs; Clone 25 envelope in NL4-3 infectious clone, tropism subtype R5~X4. As for the experimental part:
as §5

Experiment [8] concerns Clone 33 (X4 >> R5_2). Type of experiment: cell-based, HIV-1. To be noted: PBMCs; Clone 33 envelope in NL4-3 infectious clone, tropism subtype X4 >> R5. As for the experimental part:
as §5

For experiment [9], the system named is Clone 22 (R5~X4_4). Type of experiment: cell-based, HIV-1. To be noted: PBMCs; Clone 22 envelope in NL4-3 infectious clone, tropism subtype R5~X4. Here is the method: as §5
Experiment [10] concerns JRCSF (R5). Type of experiment: cell-based, HIV-1. The note with it: PBMCs, tropism subtype R5. Here is the method:
as §5

For experiment [11], the system named is Clone 26 (R5~X4_1). Type of experiment: cell-based, HIV-1. To be noted: PBMCs; Clone 26 envelope in NL4-3 infectious clone, tropism subtype R5~X4. As for the experimental part: as §5
In experiment [12] the test system is Clone 28 (R5~X4_3). Type of experiment: cell-based, HIV-1. The note with it: PBMCs; Clone 28 envelope in NL4-3 infectious clone, tropism subtype R5~X4. As for the experimental part:
as §5

For experiment [13], the system named is NL43 (X4). Type of experiment: cell-based, HIV-1. The note with it: PBMCs; NL43, tropism subtype X4. As for the experimental part: as §5
The subject of experiment [14] is Clone 11 (R5 >> X4_2). Type of experiment: cell-based, HIV-1. The note with it: PBMCs; Clone 11 envelope in NL4-3 infectious clone, tropism subtype R5 >> X4. As for the experimental part:
as §5

Experiment [15] concerns Clone 4 (R5 >> X4_1). Type of experiment: cell-based, HIV-1. The note with it: PBMCs; Clone 4 envelope in NL4-3 infectious clone, tropism subtype R5 >> X4. As for the experimental part:
as §5

In experiment [16] the test system is primarily CCR5-tropic viruses. Type of experiment: cell-based, HIV-1. To be noted: primarily CCR5-tropic viruses into CCR5- and CXCR4-expressing cells. As for the experimental part:
as §1, §2, §3, §4

The mark [17] stands for this setting: subjects with mixed populations, following treatment.

Broadly, the % inhibition is the relative decrease from the control value, in per cent.

For `c1cc(CN2CCCNCCNCCCNCC2)ccc1CN1CCCNCCNCCCNCC1` [AMD, AMD3100], the “suppression of CXCR4-tropic virus” value in experiment [1] (populations comprising 100% dual viruses (homogeneous) at baseline) was “not suppressed”; in [1] (populations containing mixtures of CCR5-tropic and CXCR4-tropic or dual-tropic viruses at baseline) it was “experienced suppression”. In addition, in [1] (setting [17]), the “entry into cells using the CXCR4 co-receptor” value is on record as “efficiently blocked”. The “entry using the CCR5 co-receptor” value in [1] (setting [17]) was “unaffected”. For the same compound, the inhibition of entry result in experiment [2] (primarily CXCR4-tropic viruses into CCR5- and CXCR4-expressing cells) is given as “inhibited”; in experiment [2] (primarily CXCR4-tropic viruses into CXCR4-expressing cells), “inhibited”; in experiment [3], “substantially inhibited”; in experiment [4], “partially inhibited”; in experiment [16], “not inhibited”. Also, the “% inhibition” value in experiment [5] is reported as 98%; in [6], 99%; in [7], 27%; in experiment [8], 99%; in [9], −12%; in experiment [10] it was 11%. Besides, the “% inhibition” value in experiment [11] is given as 41%; in [12] it was 19%; in [13] it was 99%; in experiment [14] it was −3%; in experiment [15] it was −1%.
